From patent publication EP4603105A1, “PHARMACEUTICAL COMPOSITION CONTAINING CYCLIC COMPOUND HAVING SELECTIVE KRAS INHIBITORY EFFECT AGAINST HRAS AND NRAS” (CHUGAI SEIYAKU KABUSHIKI KAISHA, priority 2022, dated 2024)
Where a SMILES comes first, the peptide text is derived from it. Bridges are numbered along the chain shown (N, C = ends). [ ]: non-standard residue; d: D form. The star is where a group is joined. hPhe(3-Cl-4-CF3) = N[C@@H](CCc1ccc(C(F)(F)F)c(Cl)c1)C(=O)O; NPrPhe(4-CF3) = CCCN[C@@H](Cc1ccc(C(F)(F)F)cc1)C(=O)O; NEtPhe(4-CF3) = CCN[C@@H](Cc1ccc(C(F)(F)F)cc1)C(=O)O; NMeGly(cPent) = CN[C@H](C(=O)O)C1CCCC1; Pro(4,4-F2) = O=C(O)[C@@H]1CC(F)(F)CN1; Hyp = O=C(O)[C@@H]1C[C@@H](O)CN1; NMeD = CN[C@@H](CC(=O)O)C(=O)O; NMeL = CN[C@@H](CC(C)C)C(=O)O; NMeAbu = CC[C@H](NC)C(=O)O; Morpholide = C1CN(*)CCO1; dNMeA = CN[C@H](C)C(=O)O; Ac5c = NC1(C(=O)O)CCCC1; Aze = O=C(O)[C@@H]1CCN1; Sar = CNCC(=O)O

Columns and labels:
[1] = test system: human lung cancer strain NCI-H441; assay type: cell-based
How it was run: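 Readout: […] after the ATP-based reagent. Compound: serial dilutions in dimethyl sulfoxide.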

[2] = target: HRAS wild-type protein (Homo sapiens, UniProt P01112); experiment: Binding to HRAS by surface plasmon resonance (SPR), KD and KD ratio to KRAS
How it was run: (§1)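 Affinity is measured by surface plasmon resonance at 30°C against captured, GDP-loaded RAS carrying a biotinylated Avi tag. Compounds are titrated by single-cycle kinetics, and KD comes from a 1:1 fit.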

[3] = target: GDP-bound NRAS wild-type protein (Homo sapiens, UniProt P01111); experiment: Binding to NRAS by surface plasmon resonance (SPR), KD and KD ratio to KRAS
How it was run: as §1

[4] = ratio of KD for HRAS wild-type protein to KD for KRAS
[5] = ratio of KD for GDP-bound NRAS wild-type protein to KD for KRAS
[6] = ratio of the KD value with respect to HRAS wild-type protein to the KD value with respect to KRAS
[7] = ratio of the KD value with respect to GDP-bound NRAS wild-type protein to the KD value with respect to KRAS

Chain of HRAS wild-type protein (P01112 whole entry): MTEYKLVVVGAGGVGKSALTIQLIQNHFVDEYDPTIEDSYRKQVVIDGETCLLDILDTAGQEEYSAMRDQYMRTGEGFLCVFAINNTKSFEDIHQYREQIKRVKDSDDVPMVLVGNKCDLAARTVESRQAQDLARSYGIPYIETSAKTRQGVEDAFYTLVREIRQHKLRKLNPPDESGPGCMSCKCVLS
Chain of GDP-bound NRAS wild-type protein (P01111 whole entry): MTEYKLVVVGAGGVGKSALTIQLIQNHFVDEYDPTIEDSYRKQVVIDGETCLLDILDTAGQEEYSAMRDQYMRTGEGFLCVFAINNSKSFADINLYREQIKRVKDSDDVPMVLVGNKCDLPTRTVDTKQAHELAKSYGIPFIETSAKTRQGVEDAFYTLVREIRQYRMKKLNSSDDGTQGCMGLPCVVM

Compound | IC50 [1] [nM] | HRAS /KRAS [2, 4] | NRAS /KRAS [3, 5] | HRAS /KRAS [2, 6] | NRAS /KRAS [3, 7]
CC[C@H](C)[C@@H]1NC(=O)[C@H](CC(C)C)N(C)C(=O)C[C@@H](C(=O)N2CCOCC2)N(C)C(=O)[C@H](C2CCCC2)N(C)C(=O)C2(CCCC2)NC(=O)[C@@H]2CCCN2C(=O)[C@H](CCc2ccc(C(F)(F)F)c(Cl)c2)NC(=O)CN(C)C(=O)[C@H](Cc2ccc(C(F)(F)F)cc2)N(CC)C(=O)CN(C)C(=O)CN(C)C1=O [PP0023] ([NMeL]I[Sar][Sar][NEtPhe(4-CF3)][Sar][hPhe(3-Cl-4-CF3)]P[Ac5c][NMeGly(cPent)][NMeD]-Morpholide; lactam N-11) | 4.5 | C (A compound having a KD ratio of 0.1 or more and less than 3 is denoted as C) | B (a compound having 3 or more and less than 10 is denoted as B) |  | 
CCCN1C(=O)CN(C)C(=O)CN(C)C(=O)[C@H]([C@@H](C)CC)NC(=O)[C@H](CC)N(C)C(=O)C[C@@H](C(=O)N2CCOCC2)N(C)C(=O)[C@H](C2CCCC2)N(C)C(=O)C2(CCCC2)NC(=O)[C@@H]2CC(F)(F)CN2C(=O)[C@H](CCc2ccc(C(F)(F)F)c(Cl)c2)NC(=O)CN(C)C(=O)[C@@H]1Cc1ccc(C(F)(F)F)cc1 [PP0202] ([NMeAbu]I[Sar][Sar][NPrPhe(4-CF3)][Sar][hPhe(3-Cl-4-CF3)][Pro(4,4-F2)][Ac5c][NMeGly(cPent)][NMeD]-Morpholide; lactam N-11) | 3.9 | C (A compound having a KD ratio of 0.1 or more and less than 3 is denoted as C) | B (a compound having 3 or more and less than 10 is denoted as B) |  | 
CCCN1C(=O)[C@@H]2CCN2C(=O)CN(C)C(=O)[C@H]([C@@H](C)CC)NC(=O)[C@H](CC(C)C)N(C)C(=O)C[C@@H](C(=O)N(C)C)NC(=O)[C@H](C2CCCC2)N(C)C(=O)C2(CCCC2)NC(=O)[C@@H]2C[C@@H](OCC)CN2C(=O)[C@H](CCc2ccc(C(F)(F)F)c(Cl)c2)NC(=O)CN(C)C(=O)[C@@H]1Cc1ccc(C(F)(F)F)cc1 [PP0389] ([NMeL]I[Sar][Aze][NPrPhe(4-CF3)][Sar][hPhe(3-Cl-4-CF3)][Hyp](Et)[Ac5c][NMeGly(cPent)]D-NMe2; lactam N-11) | 3 |  |  | B (a compound having 3 or more and less than 10 is denoted as B) | C (A compound having a KD ratio of 0.1 or more and less than 3 is denoted as C)
CCCN1C(=O)CN(C)C(=O)CN(C)C(=O)[C@H]([C@@H](C)CC)NC(=O)[C@H](CC(C)C)N(C)C(=O)C[C@@H](C(=O)N2CCOCC2)N(C)C(=O)[C@H](C2CCCC2)N(C)C(=O)C2(CCCC2)NC(=O)[C@@H]2CCCN2C(=O)[C@H](CCc2ccc(C(F)(F)F)c(Cl)c2)NC(=O)[C@@H](C)N(C)C(=O)[C@@H]1Cc1ccc(C(F)(F)F)cc1 [PP0148] ([NMeL]I[Sar][Sar][NPrPhe(4-CF3)][dNMeA][hPhe(3-Cl-4-CF3)]P[Ac5c][NMeGly(cPent)][NMeD]-Morpholide; lactam N-11) | 38 | B (a compound having 3 or more and less than 10 is denoted as B) | B (a compound having 3 or more and less than 10 is denoted as B) |  | 

Continued, in another order:

IC50 [1] [nM] | Compound | HRAS /KRAS [2, 4] | NRAS /KRAS [3, 5] | HRAS /KRAS [2, 6] | NRAS /KRAS [3, 7]
10.5 | CCC[C@H]1C(=O)N[C@@H]([C@@H](C)CC)C(=O)N(C)CC(=O)N(C)[C@H]2C/C=C\CCN(C2=O)[C@@H](Cc2ccc(C(F)(F)F)cc2)C(=O)N(C)CC(=O)N[C@@H](CCc2ccc(Cl)c(C(F)(F)F)c2)C(=O)N2C[C@H](OCC)C[C@H]2C(=O)NC2(CC(C)(C)C2)C(=O)N(C)[C@@H](C(CC)CC)C(=O)N(C)[C@H](C(=O)N(C)C)CC(=O)N1C [PP2785] | A (a compound having 10 or more and less than 20 is denoted as A) | AA (a compound having 20 or more is denoted as AA) |  | 
26.3 | CC[C@H](C)[C@@H]1NC(=O)[C@H](CC(C)C)N(C)C(=O)C[C@@H](C(=O)N2CCOCC2)N(C)C(=O)[C@H](C2CCCC2)N(C)C(=O)C2(CCCC2)NC(=O)[C@@H]2CCCN2C(=O)[C@H](CCc2ccc(C(F)(F)F)c(Cl)c2)NC(=O)CN(C)C(=O)[C@H](Cc2ccc(C(F)(F)F)cc2)N2CC/C=C\C[C@@H](C2=O)N(C)C(=O)CN(C)C1=O [PP0463] |  |  | A (a compound having 10 or more and less than 20 is denoted as A) | A (a compound having 10 or more and less than 20 is denoted as A)
